Laboratory results as given in patent US5643954A, “Method of preventing and alleviating stress in a healthy mammal in need thereof” (priority 1993, dated 1997).
Where two headings read alike, the source gives them in different places.

Assays:
Corazol twitches = assay: comparative interaction test with Corazol, rats; format: in vivo; conditions: M ± m
[1] = format: in vivo; conditions: in vivo
hexenal sleep = assay: comparative interaction test with hexenal, rats; format: in vivo; conditions: M ± m
strychnine effects = conditions: for Threshold doses Strychnine 0,01% solution, death of animal / Threshold doses Strychnine 0,01% solution, start of twitch: M ± m
[2] = tested on: chronic electric painful influence; conditions: for daily 15% ethanol consumption: M ± m
Method: In the test and control groups of animals, a determination was given during 7 days to an individual daily consumption of 15% ethanol in the conditions of free choice between said 15% ethanol and water. Thereafter the young rats were subjected to quintuple electric painful influence, daily for 2 weeks, on the paws for 5 minutes, duration 1 sec.; the grown-up animals--tenfold influence for 10 minutes, duration 1 sec. […] The control group received a corresponding volume of water.

[3] = taken once or regularly (14 days)
chronic emotional stress = conditions: 1 mg/kg tongue root; for 15% ethanol daily consumed: M ± m
Excerpt: It is commonly known that manipulations with animals (cell sampling, administration of substances, water included) are a unique stress factor and cause a prolonged state of excitement, disturbance, aggressiveness.

[4] = for Number of errors per 500 symbols: M ± m
Method: Examination of the mental capacity dynamics of the tested was performed in two stages.

[5] = not given; remark: listed apart in the source
[6] = tested on: guinea pig's ileum (acetylcholine); conditions: for Amplitude of concentration in % to control / Amplitude of concentration: acetylcholine; for Amplitude of concentration: M ± m
Method: (§1) Experiments were conducted in vivo on male mice weighing 18-22 g and male rats weighing 200-250 g, as well as in vitro on the isolated organs: a guinea pig's ileum and a rat's seminal effervesces.

[7] = tested on: rat's seminal effervesce (adrenaline); conditions: for Amplitude of concentration in % to control / Amplitude of concentration: adrenaline; for Amplitude of concentration: M ± m
Method: as §1

arecoline hyperkinesia = conditions: M ± m
[8] = tested on: acute stress action (electric painful influence)
Excerpt: The test and control young rats were subjected to a single electric painful influence in a matter of a second ("electric floor" 59 hertz, 35 v). […] Sixty minutes after, the behaviour of animals was investigated in the "open field" test.

[9] = remark: listed apart in the source
Method: The examination of attention was performed by using Schulte test which provides for a square chart produced before a patient (tested) that is divided into 49 squares containing confusedly arranged red and black numbers (24 and 25, respectively). The numbers are sought in the chart in strict order, say, red ones in increasing order and black ones in decreasing order, and along with this, the time is fixed for execution of the entire assignment, the time of search of each and every figure and the number of mistakes. The test makes it possible to assess attention and reveal the persons having enhanced emotional responses.
To study the state of short-lived memory, use was made of a test based on reproduction of 10 two-digit numbers shown on the screen for 20 sec. […] Sensomotor reactions were evaluated with the aid of a visual-motor reaction (differentiation of optical signals from 20 applications).

[10] = 200 mg/kg single administration
[11] = week's fourth day, after classes
[12] = week's fourth day, before classes, after dose
[13] = week's second day, after classes
[14] = week's second day, before classes, after dose
[15] = after the exams, after taking, M ± m
[16] = lab conditions, after taking, after testing, M ± m
[17] = taken 30 minutes before an exam
[18] = after taking the preparation, M ± m

## aminoacetic acid [claimed preparation]
Corazol twitches; 20 mg/kg
  Corazol twitches, latent period: 41.0 ± 0.3 min
Corazol twitches; 80 mg/kg
  Corazol twitches, latent period: 45.0 ± 0.9 min
Corazol twitches; 200 mg/kg
  Corazol twitches, latent period: 42.5 ± 0.7 min
[1]
  sedative and synchronizing effect on EEG: displaying at the same time a sedative and synchronizing effect on EEG
Hexenal sleep; 2 mg/kg
  Hexanal sleep duration: 36.0 ± 1.8 min
Hexenal sleep; 40 mg/kg
  Hexanal sleep duration: 32.0 ± 1.9 min
Hexenal sleep; 200 mg/kg
  Hexanal sleep duration: 28.0 ± 1.9 min
Strychnine effects; 2 mg/kg single administration
  Threshold doses Strychnine 0,01% solution, death of animal: 0.21 ± 0.007 mL
  Threshold doses Strychnine 0,01% solution, start of twitch: 0.17 ± 0.008 mL
Strychnine effects; 40 mg/kg single administration
  Threshold doses Strychnine 0,01% solution, death of animal: 0.21 ± 0.005 mL
  Threshold doses Strychnine 0,01% solution, start of twitch: 0.18 ± 0.007 mL
Strychnine effects; 80 mg/kg single administration
  Threshold doses Strychnine 0,01% solution, death of animal: 0.18 ± 0.006 mL
  Threshold doses Strychnine 0,01% solution, start of twitch: 0.17 ± 0.005 mL
Strychnine effects; [10]
  Threshold doses Strychnine 0,01% solution, death of animal: 0.19 ± 0.006 mL
  Threshold doses Strychnine 0,01% solution, start of twitch: 0.15 ± 0.008 mL
Strychnine effects; in words
  influence on strychnine effects: does not practically influence said strychnine effects
[2]; adult animals, 2nd week, 1 to 2 mg/kg tongue root
  daily 15% ethanol consumption: 3.4 ± 0.13 mL
[2]; adult animals, 4th week (after cancellation)
  daily 15% ethanol consumption: 2.3 ± 0.3 mL
[2]; adult animals, 3d week, 1 to 2 mg/kg tongue root
  daily 15% ethanol consumption: 2.5 ± 0.15 mL
[2]; adult animals, Test, 1st week (before stress and administration)
  daily 15% ethanol consumption: 1.8 ± 0.08 mL
[2]; during the entire experiment, vs control groups
  aggressiveness and exciteability: considerable reduction of aggressiveness and exciteability
[2]; rat, in vivo
  alcohol motivation: diminishes the alcohol motivation of the animals
[2]; young rats, 2nd week, 1 to 2 mg/kg tongue root
  daily 15% ethanol consumption: 4.4 ± 0.3 mL
[2]; young rats, 4th week (after cancellation)
  daily 15% ethanol consumption: 1.6 ± 0.18 mL
[2]; young rats, 3d week, 1 to 2 mg/kg tongue root
  daily 15% ethanol consumption: 2.0 ± 0.2 mL
[2]; young rats, Test, 1st week (before stress and administration)
  daily 15% ethanol consumption: 2.7 ± 0.2 mL
[3]
  weariness, irritation and internal unrest: weariness, irritation and internal unrest significantly abate
Chronic emotional stress
  alcohol motivation: considerably reduces it
Chronic emotional stress; 1 week
  15% ethanol daily consumed: 3.6 ± 0.3 mL
Chronic emotional stress; 2 week
  15% ethanol daily consumed: 4.0 ± 0.3 mL
Chronic emotional stress; 3 week
  15% ethanol daily consumed: 2.3 ± 0.3 mL
Chronic emotional stress; 4 week
  15% ethanol daily consumed: 2.7 ± 0.2 mL
[4]; [11]
  Work without mistakes: 14.3%
  Number of errors per 500 symbols: 8.4 ± 1.2
[4]; [12]
  Work without mistakes: 28.6%
  Number of errors per 500 symbols: 7.6 ± 1.9
[4]; [13]
  Work without mistakes: 25.0%
  Number of errors per 500 symbols: 7.8 ± 1.8
[4]; [14]
  Work without mistakes: 16.5%
  Number of errors per 500 symbols: 6.5 ± 1.6
[15]
  Arterial pressure, diastolic: 65.7 ± 1.5 mm Hg
  Arterial pressure, systolic: 112.8 ± 2.8 mm Hg
  Pulse frequency: 72.8 ± 2.3 spec./min.
Heightened nerve-psychic agitation, in words
  change in pulse rate and arterial pressure: eliminates a change in a pulse rate and arterial pressure
In vivo
  Arterial pressure, diastolic: 69.3 ± 1.3 mm Hg
  Arterial pressure, systolic: 110.2 ± 1.7 mm Hg
  Pulse frequency: 76.8 ± 1.4 spec./min.
[16]
  Arterial pressure, diastolic: 69.2 ± 1.1 mm Hg
  Arterial pressure, systolic: 107.7 ± 1.5 mm Hg
  Pulse frequency: 78.1 ± 1.4 spec./min.
[5]; [17]
  marks exceeding those of the school year: 0.5-1 point
  students noting disappearance of fear and internal discomfort: 95%
[5]; taken before an exam, chiefly in maths
  good and excellent marks 4 and 5: 80%
[6]; 1·10^-4 M, 100 µM
  Amplitude of concentration in % to control: 89%
[6]; 1·10^-4 M
  Amplitude of concentration: 97.0 ± 1.5 mm
[6]; 1·10^-5 M, 10 µM
  Amplitude of concentration in % to control: 99%
[6]; 1·10^-5 M
  Amplitude of concentration: 105.0 ± 1.8 mm
[6]; 1·10^-6 M, 1 µM
  Amplitude of concentration in % to control: 109%
[6]; 1·10^-6 M
  Amplitude of concentration: 116.0 ± 2.4 mm
[6]; in words
  antagonism with acetylcholine: without discovering antagonism with said acetylcholine
[7]; 1·10^-4 M, 100 µM
  Amplitude of concentration in % to control: 65,5%
[7]; 1·10^-4 M
  Amplitude of concentration: 45.0 ± 0.6 mm
[7]; 1·10^-5 M, 10 µM
  Amplitude of concentration in % to control: 83%
[7]; 1·10^-5 and 1·10^-4 M
  adrenoblocking action: weak and mild adrenoblocking action
[7]; 1·10^-6 M, 1 µM
  Amplitude of concentration in % to control: 94%
[7]; 1·10^-6 M
  Amplitude of concentration: 65.0 ± 1.2 mm
[7]; in words
  contracting responses to adrenaline: suppresses the contracting responses
Arecoline hyperkinesia; 2 mg/kg
  Arecoline hyperkinesia, duration: 16.5 ± 0.4 min
Arecoline hyperkinesia; 20 mg/kg
  Arecoline hyperkinesia, duration: 14.8 ± 1.2 min
Arecoline hyperkinesia; 40 mg/kg
  Arecoline hyperkinesia, duration: 13.8 ± 0.9 min
Arecoline hyperkinesia; 80 mg/kg
  Arecoline hyperkinesia, duration: 14.5 ± 0.9 min
Arecoline hyperkinesia; 200 mg/kg
  Arecoline hyperkinesia, duration: 15.6 ± 0.8 min
[8]; 2 mg/kg on tongue root 20 min before electric painful influence
  Intersection of a floor's center: 0
[8]; 2 mg/kg on tongue root 20 min before electric painful influence, M ± m
  Defecation: 0.4 ± 0.28
[8]; preliminarily administered
  stress-protective effect: displays a stress-protective effect and considerably reduces on-stress-dependent excitement manifestations
[9]; 2 mg/kg one time
  cases with increased volume of short-lived memory: 58.9%
  cases with subjective and objective improvement of general state: 87.2%
  students with reduction of latent period of visual-motor reaction and number of differentiation disruptions: 56.4%
  tested whose short-lived memory did not worsen and remained on the initial level: 25.7%
[9]; 2 mg/kg one time, average
  increase of volume of short-lived memory: 25%
[9]; 2 mg/kg one time, in words
  attention: reducing the attention switching time and the number of mistakes made
[9]; [18]
  Attention switching number of errors: 3.20 ± 0.39
  Attention switching time: 95.39 ± 6.11 s
  Shortlived memory: 46.92 ± 2.58 nom. units
  Visual-motor reaction differentiation disruption: 0.46 ± 0.13 nominal units
  Visual-motor reaction latent period: 0.51 ± 0.01 min
